These molecules were tested against T1, human CaV3.2 (Homo sapiens, UniProt O95180) (assay: IonWorks screen for hCaV3.2 (Cav3.2 Ionworks assay)). Details: read-out: IW hCav3 2 IC50.
T1 construct: expressed in transfected cells
Type: cell-based
From the text: Functional evaluation of voltage-gated ion channels was used to determine potency and/or single concentration efficacy of proprietary compounds. Two different methodologies were used to measure ion currents: the IonWorks HT (Molecular Devices, Sunnyvale, Calif.) a moderate throughput voltage clamp screening platform that utilizes 96-well compound plates and conventional whole cell patch clamp for lower throughput, higher fidelity determinations.
HEK cells were transiently transfected and then selected for stable heterologous expression of different channel proteins of interest. Calcium channel cell lines expressed a resting potassium current, human Kir2.1, and the pore forming α-subunit of voltage-gated calcium channels. In the case of CaV2.1 cells the auxiliary subunit, β2a, was also expressed. Calcium channel lines that were used to generate the data in this document expressed either human CaV3.2, rat CaV3.2 or human CaV2.1. The human heart sodium channel, hNaV1.5, was stably expressed in CHO cells. These cells were licensed from the University of Pennsylvania.
Cell lines were grown at 37° C. in humidified incubators, equilibrated with 95% air/5%0 CO2 CHO cells were grown in Ham's F-12 medium. HEK cells were grown in DMEM. All media were supplemented with 10% heat-inactivated fetal bovine serum, penicillin, streptomycin and appropriate selection antibiotics (zeocin, geneticin and/or hygromycin). Cells were passaged when 80% confluent or less.
IonWorks Screen for hCaV3.2
The extracellular buffer for experiments using this instrument contained the following (mM) (NaCl 125, HEPES 10, KCl 5.4, CaCl2 1.8, MgCl2 1.8, 0.2 BaCl2 pH 7.35). The IonWorks uses amphotericin to gain electrical access to the cell interior. The internal solution contained (mM concentrations): 130 K-gluconate, 20 KCl, 5 HEPES-KOH (pH 7.25), 2 CaCl2, 1 MgCl2. Amphotericin added at 5 mg in 65 ml when present (in 650 μl DMSO). All internal and external solutions for this experiment contain 1% DMSO. Cells were acutely trypsinized from a T-75 flask and resuspended in extracellular buffer at a density of 2×10^5 cells/ml.
Experiments were performed at room temperature. Transmembrane potential was held at −100 mV for 5 seconds prior to running the voltage protocol. During this time leak currents were measured during a step to −110 mV (200 milliseconds). T-type calcium currents were activated with a 250 millisecond step to −20 mV. This depolarization step was repeated for a total of 10 pulses with an interpulse interval of 1 second. Data were excluded if the following acceptance criteria were not met: total resistance for the pre-compound scan >65 MΩ, pre-compound current >250 pA, post compound total resistance >50 MΩ.
T-type currents were measured as the peak inward current minus the current at the end of the 250 msec step to −20 mV. After the recoding configuration was established there was a pre-compound measurement of current amplitude. Compound was added as a 3× solution containing 1% DMSO. After incubation with compound for 10 minutes currents were measured again. The current amplitude after compound addition was divided by the pre-compound current for pulse 10 to determine the fraction of current remaining after compound addition. For each compound, 8-point concentration-effect relationships were measured with ½ log serial dilutions.

T1 sequence (O95180 whole entry): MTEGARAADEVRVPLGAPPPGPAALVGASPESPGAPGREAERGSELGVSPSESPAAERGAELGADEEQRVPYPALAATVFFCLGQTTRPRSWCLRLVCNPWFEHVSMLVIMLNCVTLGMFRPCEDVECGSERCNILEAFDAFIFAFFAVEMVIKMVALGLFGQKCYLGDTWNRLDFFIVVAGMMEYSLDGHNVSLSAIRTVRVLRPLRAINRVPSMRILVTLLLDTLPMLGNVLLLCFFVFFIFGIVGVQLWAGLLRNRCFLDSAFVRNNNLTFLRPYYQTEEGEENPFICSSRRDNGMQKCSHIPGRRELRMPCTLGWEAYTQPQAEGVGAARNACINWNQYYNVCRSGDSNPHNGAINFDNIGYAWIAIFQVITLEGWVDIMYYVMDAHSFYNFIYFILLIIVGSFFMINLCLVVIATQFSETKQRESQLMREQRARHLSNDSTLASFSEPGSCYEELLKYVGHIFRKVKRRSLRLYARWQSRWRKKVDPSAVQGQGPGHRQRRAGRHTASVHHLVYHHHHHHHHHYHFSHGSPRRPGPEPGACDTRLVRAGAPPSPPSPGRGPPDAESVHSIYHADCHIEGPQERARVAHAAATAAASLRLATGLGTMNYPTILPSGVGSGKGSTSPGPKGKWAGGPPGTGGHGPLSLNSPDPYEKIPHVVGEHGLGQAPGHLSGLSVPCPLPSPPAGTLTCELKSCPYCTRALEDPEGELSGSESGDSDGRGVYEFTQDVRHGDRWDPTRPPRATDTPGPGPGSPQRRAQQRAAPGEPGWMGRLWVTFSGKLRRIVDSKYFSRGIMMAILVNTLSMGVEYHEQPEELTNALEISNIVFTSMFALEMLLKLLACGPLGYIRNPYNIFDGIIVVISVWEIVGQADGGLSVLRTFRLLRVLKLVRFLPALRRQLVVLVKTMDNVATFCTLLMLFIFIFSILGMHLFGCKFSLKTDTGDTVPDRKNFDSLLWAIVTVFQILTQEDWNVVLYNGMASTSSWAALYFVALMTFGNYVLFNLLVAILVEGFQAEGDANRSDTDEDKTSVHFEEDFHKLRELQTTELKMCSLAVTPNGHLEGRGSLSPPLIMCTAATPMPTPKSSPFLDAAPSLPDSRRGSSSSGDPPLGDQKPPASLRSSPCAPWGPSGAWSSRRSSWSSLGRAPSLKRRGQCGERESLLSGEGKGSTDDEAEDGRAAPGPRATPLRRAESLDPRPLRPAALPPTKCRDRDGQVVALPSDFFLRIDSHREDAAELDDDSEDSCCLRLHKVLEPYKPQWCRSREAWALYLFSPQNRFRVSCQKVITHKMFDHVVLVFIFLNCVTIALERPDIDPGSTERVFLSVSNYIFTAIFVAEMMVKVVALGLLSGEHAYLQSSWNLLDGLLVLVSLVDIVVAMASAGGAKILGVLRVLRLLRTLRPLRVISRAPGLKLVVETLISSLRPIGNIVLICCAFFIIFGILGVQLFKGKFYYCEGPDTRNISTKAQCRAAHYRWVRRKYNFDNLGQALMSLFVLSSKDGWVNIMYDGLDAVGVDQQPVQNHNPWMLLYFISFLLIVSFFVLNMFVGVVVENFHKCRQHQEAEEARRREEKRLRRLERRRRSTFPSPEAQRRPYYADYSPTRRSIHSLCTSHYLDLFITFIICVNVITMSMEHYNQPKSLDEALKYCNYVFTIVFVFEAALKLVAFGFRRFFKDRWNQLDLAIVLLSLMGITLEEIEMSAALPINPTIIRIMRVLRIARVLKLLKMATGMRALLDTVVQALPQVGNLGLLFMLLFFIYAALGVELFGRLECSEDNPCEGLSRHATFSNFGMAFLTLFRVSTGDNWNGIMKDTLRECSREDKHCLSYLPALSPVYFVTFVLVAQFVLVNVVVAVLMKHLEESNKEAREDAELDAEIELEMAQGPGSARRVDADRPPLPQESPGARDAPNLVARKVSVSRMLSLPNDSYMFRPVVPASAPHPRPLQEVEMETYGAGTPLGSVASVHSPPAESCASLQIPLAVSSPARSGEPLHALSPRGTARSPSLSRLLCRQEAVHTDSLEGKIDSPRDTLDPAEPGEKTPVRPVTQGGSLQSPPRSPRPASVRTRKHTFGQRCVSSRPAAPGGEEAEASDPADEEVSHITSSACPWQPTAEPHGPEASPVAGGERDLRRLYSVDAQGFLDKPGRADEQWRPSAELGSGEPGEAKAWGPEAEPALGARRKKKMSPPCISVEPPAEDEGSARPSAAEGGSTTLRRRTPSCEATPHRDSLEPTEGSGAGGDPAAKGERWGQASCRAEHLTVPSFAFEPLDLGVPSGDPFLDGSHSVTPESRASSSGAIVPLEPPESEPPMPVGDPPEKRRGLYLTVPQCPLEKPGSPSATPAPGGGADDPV

IC50 [nM] | Structure (SMILES)
23 | COC(=O)[C@H](CC(C)C)NC(=O)N1CCC2(CC1)CN(CC(C)C)C2c1ccc(Cl)cc1 (stereo partly shown)
26 | CC[C@H](C)[C@H](NC(=O)N1CCC2(CC1)CN(CC(C)C)C2c1ccc(Cl)cc1)C(=O)OC (stereo partly shown)
32 | COC(=O)[C@@H](NC(=O)N1CCC2(CC1)CN(CC(C)C)C2c1ccc(Cl)cc1)C(C)C (stereo partly shown)
65 | COC(=O)[C@H](CC(C)C)NC(=O)N1CCC2(CC1)CN(C(C)C)C2c1ccc(Cl)cc1 (stereo partly shown)
77 | CC[C@H](C)[C@H](NC(=O)N1CCC2(CC1)CN(c1ccc(F)cc1)C2c1ccc(Cl)cc1)C(=O)OC (stereo partly shown)
376 | O=C(C1CCCCC1)N1CCC2(CC1)CN(C(=O)C1(c3ccc(Cl)cc3)CCCC1)C2c1ccccc1 (stereo not shown)
32 | CC(C)N1CC2(CCN(C(=O)Nc3cc(F)cc(F)c3)CC2)C1c1ccc(Cl)cc1 (single isomer, unassigned)
69 | CC(C)N1CC2(CCN(C(=O)Nc3ccc(F)cc3)CC2)C1c1ccc(Cl)cc1 (single isomer, unassigned)

These molecules were tested against T2, human-SP9215 (GPR119) (Homo sapiens, UniProt Q8TDV5) (assay: GPR119 screening assay (LANCE cAMP)). Details: HEK 293 cells stably transfected with human GPR119, read-out: GPR 119 cAMP IC50.
T2 construct: expressed in transfected cells
T2 sequence (Q8TDV5 1-335): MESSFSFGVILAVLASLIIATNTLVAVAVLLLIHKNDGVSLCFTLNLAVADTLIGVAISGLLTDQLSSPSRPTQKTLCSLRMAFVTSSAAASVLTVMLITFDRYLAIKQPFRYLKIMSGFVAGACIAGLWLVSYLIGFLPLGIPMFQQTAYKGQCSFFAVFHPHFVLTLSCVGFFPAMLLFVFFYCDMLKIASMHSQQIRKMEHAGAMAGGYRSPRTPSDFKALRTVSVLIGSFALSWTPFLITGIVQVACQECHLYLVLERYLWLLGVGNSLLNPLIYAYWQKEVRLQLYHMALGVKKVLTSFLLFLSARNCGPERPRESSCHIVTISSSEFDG
Type: cell-based
Description: • +100 mg BSA (MP Biomedicals faction V, #103703)=0.1% • +500 ul 1M HEPES (Cellgro #25-060-CI)=5 mM • +75 ul RO-20 (Sigma B8279; 20 mM stock in DMSO stored in aliquots at −20 C)=15 uM • (made fresh daily) B84 (N-[4-(methylsulfonyl)phenyl]-5-nitro-6-[4-(phenylthio)-1-piperidinyl]-4-pyrimidinamine, see WO 2004/065380). A 10 mM stock solution of the test compound in DMSO was prepared, aliquoted and stored at −20 C. For Totals—Dilute 1:33.3 in DMSO then 1:50 in Stimulation Buffer=6 uM in 2% DMSO (=3 uM B84 and 1% DMSO final). For Dose Response Curve—3 ul stock+7 ul DMSO+490 ul Stim Buffer=60 uM in 2% DMSO (=30 uM B84 and 1% DMSO final). (made fresh daily). Cell Line: Human clone 3. HEK 293 cells stable transfected with human-SP9215 (GPR119)/pcDNA3.1 and also stable for pCRELuc, Stratagene. Cells are maintained in DMEM containing 10% FBS (invitrogen #02-4006Dk, lot #1272302, heat inactivated), 1×MEM, 1× Pen/Strep, 0.1 mg/ml Hygromycin 6, and […] G418. Cells are split 1:8 twice per week. cAMP Kit: LANCE™ cAMP 384 kit, Perkin Elmer #AD0263 Compound Dilutions: • Add DMSO to vials containing compounds to yield a 1 mg/ml solution. • 1. Dilute compounds to 60 μM in Stimulation buffer. Make ½ log dilutions into Stimulation buffer containing 2% DMSO using the epMotion robot. 10 point dose response curve 1 nM to 30 uM. • 2. Compounds are run in quadruplicate, 2 separate dilutions for each, sets 1 and 1a. Assay Procedure: • 1. The afternoon before the assay, replace the media in the flask of Human clone 3 cells with Optimem. (Gibco #11058-021) NOTE: cells should be in culture 6-8 days. • 2. Next morning, pipette the cells gently off the flask using HBSS (RT). • 3. Pellet the cells (1300 rpm, 7 min, RT) and resuspend in Stimulation Buffer at […] (=5-8,000 cell/6 ul). Add 1:100 dilution of Alexa Fluor 647-anti cAMP antibody (provided in the kit) directly to the cell suspension. • 4. Into white 384-well plates (Matrix) add 6 ul of 2× B84, cmpds or stim buffer for nsb. They all contain 2% DMSO (=1% DMSO final). • 5. Add 6 ul of the cell suspension to the wells. Incubate 30 minutes RT. • 6. For the std curve add 6 ul cAMP std solution diluted in Stim Buffer+2% DMSO according to kit directions (1000-3 nM). Add 6 ul of 1:100 anti-cAMP dilution in Stim Buffer to std wells. • 7. Make Detection Mix according to kit instructions and incubate 15 min RT. • 8. Add 12 ul Detection Mix to all the wells. Mix gently by tapping and incubate 2-3 hrs RT. • 9. Read on the Envision under the protocol “Lance/Delphia cAMP” • 10. Values (nM) for each sample are determined by extrapolation from the std curve. % Control, Fold and EC50 (Control=3 uM B84) are determined for each compound, averaging sets 1 and 1a. Results

IC50 [nM] | Structure (SMILES)
1640 | O=C(c1ccc2c(c1)OCCCO2)N1CCC2(CC1)CN(c1ccc(F)cc1)C2c1ccc(Cl)cc1 (stereo not shown)
1920 | CC(C)CN1CC2(CCN(C(=O)c3ccc4c(c3)OCCCO4)CC2)C1c1ccccc1 (stereo not shown)
2620 | CC(C)CN1CC2(CCN(C(=O)c3ccc4c(c3)OCCCO4)CC2)C1c1ccc(Cl)cc1 (stereo not shown)
2770 | O=C(c1ccc2c(c1)OCCCO2)N1CCC2(CC1)CN(Cc1ccccc1Cl)C2c1ccc(Cl)cc1 (stereo not shown)
2980 | O=C(c1ccc2[nH]cnc2c1)N1CCC2(CC1)CN(Cc1ccccc1Cl)C2c1ccccc1 (stereo not shown)
